Reference: patent publication US11278595B2, “Peptides comprising non-natural amino acids and methods of making and using the same” (Longevity Biotech, Inc., priority 2013, dated 2022)
Numbered stars: 1 amine (or outer) side, 2 acyl side, 3 side chain; on linkers, the order of the positions; unused ones are H or OH. Square brackets hold non-standard residues; d marks the D form. Peptide text beside a SMILES is read from it. ξ: configuration not given here. ξ(4-Aminopyrrolidine-3-CO) = O=C(C1CNCC1N[*:1])[*:2]; X3 = O=C(C1CCCC1N[*:1])[*:2]; β3hK = NCCCC[C@H](N)CC(=O)O; βAla = NCCC(=O)O

How the values were obtained:
protease = test: In vitro protease stability assay; format: in vitro ADME; conditions: FIG. 1; compared to Ro 25-1553 (one lactam bridge)
Description: In Vitro Stability Assay: Stock solutions of the both the naturally occurring peptides as well as peptide analogs are prepared at a concentration of 250 μM (based on UV absorbance) in a 2% DMSO solution of appropriate buffering conditions. Standard solution of proteinase K in addition to other common animal proteases (i.e. Cathepsins, Trypsins, dipeptidyl peptidase IV and chymotrypsin) were prepared at the following concentrations in appropriate buffers separately: Protease K: 250 μg/ml, Chymotrypsin 25 μg/mL and DPP-IV 40 units/ml. For a Protease K assay, the following recipe was followed: 1 μL enzyme was added to 5 μL peptide analog in 44 μL PBS. […] 50 μL of the resulting quenched reaction are then injected onto an analytical reverse phase HPLC, and the amount of starting peptide present quantified by integration of the appropriate chromatogram peak via absorbance at either 220 or 280 nm. […] Half-lives are determined by fitting time dependent peptide concentration to an exponential decay using GraphPad Prism. Samples for some time points will be analyzed by mass spectrometery, and the products observed are used to identify amide bonds cleaved in the course of the reaction. The relative stability enhancement is determined through the comparison of the various analogs with its naturally occurring peptide counterpart. […]

[1] = system: anti-CD3 stimulated naïve CD4+CD25− T cells; test: Inhibition assay of suppressive function of Treg from treated donor mice; format: cell-based; conditions: compared to PBS Treg populations; 1:1 Treg to responder ratio; donors injected daily/5 days/i.p.
Description: Immediately following the final dose, mice were sacrificed, and single-cell suspensions were prepared from inguinal lymph nodes and spleens. CD4+ T cell populations from spleens and lymph nodes were enriched by negative selection with CD4-enrichment columns (R&D Systems, Minneapolis, Minn.), followed by CD25-PE positive selection with AutoMACS (Miltenyi Biotec, Auburn, Calif.). As determined by flow cytometric analysis, populations of Tregs and Teffs were consistently […] using this method (12). T cells were cultured in complete RPMI 1640 (RPMI 1640 [Invitrogen, Carlsbad, Calif.] supplemented with 10% FBS, 2 mM L-gluta-mine, 25 mM HEPES, 1 mM sodium pyruvate, […] nonessential amino acids, […] 2-ME, 100 U/ml penicillin, and […] streptomycin [Mediatech, Manassas, Va.]) in the presence of anti-CD3 (145-2C11; BD Pharmingen, San Diego, Calif.), 4YSyn, or N-4YSyn. […]
To assess whether VIP, LBT-V101 (SEQ ID NO: 22), LBT-V218 (SEQ ID NO: 18) and PBS treated splenocytes (SPC) suppress effector T cell proliferative responses, we evaluated SPC co-cultures from VIP-treated donors for their proliferative capacity in the presence of either anti-CD3. […] To test this hypothesis, we evaluated CD4+CD25+CD62Llow Treg isolated from naïve and VIP-treated mice for their capacity to inhibit CD3-mediated proliferation of CD4+CD25− naïve T cells. […]

[2] = system: dopaminergic neurons (TH+/Nissl+) in the SN; test: Parkinson's disease (MPTP) model, adoptive transfer of splenocytes from drug-treated donors; format: in vivo; conditions: MPTP mice; donors 15 ug/day/5 days; FIG. 5
Description: Parkinson's Disease (PD) Model (not prophetic): Male C57/BL6 mice, 8-12 w old, housed in the IACUC approved housing were administered an analog described herein as well as a pharmaceutically acceptable carrier for five days at a dose between (0.1 nM and 100 nM). Thereafter, SPC and Tregs from the mice are harvested and then transferred to another set of MPTP intoxicated mice using the following protocol.
Immediately following the final dose, mice were sacrificed, and single-cell suspensions were prepared from inguinal lymph nodes and spleens. […] As determined by flow cytometric analysis, populations of Tregs and Teffs were consistently […] using this method (12). […]
Mice were postmortem transcardially perfused with PBS, followed by 4% para-formaldehyde (Sigma-Aldrich). […] Fluorojade C (FJ-C) staining (Millipore, Billerica, Mass.) was performed on adjacent sections, according to the manufacturer's protocol, to assess de-generating neurons and was quantified using ImageJ. Overall, dopaminergic neuron survival was assessed 7 d following MPTP intoxication and resolution of cell death processes with polyclonal Abs to mouse tyrosine hydroxylase (TH; 1:1000; EMD Chemicals/Calbiochem, San Diego, Calif.) and were counterstained for Nissl substance by thionin staining. […] Quantitation of striatal TH (1:500; EMD Chemicals/Calbiochem, Gibbstown, N.J.) was performed by densitometric analysis. […]

Q: Which in-vitro protease stability (protease) does the source give for `CC(=O)N[C@@H](Cc1c[nH]cn1)C(=O)NC1CCCC1C(=O)N[C@@H](CC(=O)O)C(=O)N[C@@H](C)C(=O)NC1CCCC1C(=O)N[C@@H](Cc1ccccc1)C(=O)N[C@H](C(=O)N[C@@H](CCC(=O)O)C(=O)N[C@@H](CC(N)=O)C(=O)N[C@@H](Cc1ccc(O)cc1)C(=O)N[C@H](C(=O)N[C@@H](CCCCN)C(=O)N[C@@H](CC(C)C)C(=O)N[C@@H](CCCNC(=N)N)C(=O)N[C@@H](CCCCN)C(=O)N[C@@H](CCC(N)=O)C(=O)N[C@@H](CC(C)C)C(=O)N[C@@H](C)C(=O)N[C@@H](C)C(=O)NC1CNCC1C(=O)N[C@@H](CCCCN)C(=O)N[C@@H](Cc1ccc(O)cc1)C(=O)NC1CCCC1C(=O)N[C@@H](CC(N)=O)C(=O)N[C@@H](CC(=O)O)C(=O)N[C@@H](CC(C)C)C(=O)N[C@@H](CCCCN)CC(=O)N[C@@H](CCCCN)C(=O)NCC(=O)NCCC(=O)N[C@H](C(N)=O)[C@@H](C)O)[C@@H](C)O)[C@@H](C)O` (stereo partly drawn) [LBT-V208, Ac-HxDAxFTENYTKLRKQLAAzKYxNDLkKGgT] (Ac-H[X3]DA[X3]FTENYTKLRKQLAA[ξ(4-Aminopyrrolidine-3-CO)]KY[X3]NDL[β3hK]KG[βAla]T-NH2) here?
A: The in-vitro protease stability was “stability is greater”.

Q: HSDAVFTDNYTRLRKQMAVKKYLNSILN [VIP] was tested. Which “suppressive capacity of Treg on T cell proliferation” value [1] did it give?
A: The value was “enhanced suppressive capacity”.

Q: What about the “neuroprotection after adoptive transfer of splenocytes from drug-treated donors” value [2] of the same molecule?
A: Its value is “neuroprotective”.
